Data set [1] has as its system Plasmodium falciparum D-6 clone (CDC Sierra Leone I). The data set is described as follows: In vitro antimalarial study, [3H]hypoxanthine uptake, D-6 clone. The data set is classed as cell-based. The method, then:
B. Antimalarial Activities: (a). In Vitro Antimalarial Studies. The in vitro assays were conducted by using a modification of the semiautomated microdilution technique of Desjardins et al and Chulay et al.. Four P. falciparum malaria parasite clones, from CDC Indochina III (W-2), CDC Sierra Leone I (D-6), Southeast Asia Isolates (TM91C235) and RCS (Isolates from Brazil) were utilized in susceptibility testing. They were derived by direct visualization and micromanipulation from patient isolates. The W-2 clone is susceptible to mefloquine but resistant to chloroquine, sulfadoxine, pyrimethamine, and quinine, whereas the D-6 clone is naturally resistant to mefloquine but susceptible to chloroquine, sulfadoxine, pyrimethamine and quinine. Test compounds were initially dissolved in DMSO and diluted 400 fold in RPMI 1640 culture medium supplemented with 25 mM Hepes, 32 mM NaHCO3 and 10% Albumax I (Gibco BRL, Grand Island, N.Y.). These solutions were subsequently serially diluted two-fold with a Biomek 1000 (Beckman, Fullerton, Calif.) over 11 different concentrations. The parasites were exposed to serial dilutions of each compound for 48 hrs and incubated at 37° C. with 5% O2, 5% CO2 and 90% N2 prior to the addition of [^3H]hypoxanthine. After a further incubation of 18 hrs, parasite DNA was harvested from each microtiter well using Packard Filtermate 196 Harvester (Meriden, Conn.) onto glass filters. Uptake of [^3H]hypoxanthine was measured with a Packard Topcount Scintillation. Concentration-response data were analyzed by a non-linear regression logistic dose response model and the IC50 values (50% inhibitory concentrations) for each compound were calculated. (Table 3). (b). In Vivo Antimalarial Studies against P. berghei in mice: The in vivo efficacy of the artelinic acid analogs were determined in a modified Thompson test. This test measures the survivability of mice and parasitemia clearance following administration of drug on days 3-5 post infection. In brief, 5×10^6 P. berghei-infected erythrocytes (KBG-173 strain) were inoculated intraperitoneally to female mice that weighed 24-30 g. By day three post-infection, parasitemia ranged from 1.0-3.7%. Each drug, dissolved in 5% sodium bicarbonate, was administered PO twice daily from day 3-5 post-infection. Total doses for each drug ranged from 1.5-384 mg/kg with 8 mice included in each dosage group. The percent suppression of parasitemia in the treated mice compared to the untreated controls was determined for each test compound; the SD-50 (fifty percent suppression dose) and SD-90 were determined from a non-linear regression logistic dose response fit at day 6 parasitemia data. Survival of mice to day 60 post-infection was considered a cure (C). Compounds were considered active (A) when the survival time of the treated mice was greater than twice the control mice, i.e., 12-14 day (Table 4-5). (c). Sporozoite Induced Test Each compound is ground with a mortar & pestle and suspended in 0.5% hydroxyethylcellulose—0.1% Tween 80 for compounds to be administered PO and those given SC are suspended in peanut oil. Each compound is prepared at 3 different dose levels as requested by WRAIR. Compounds are administered either PO or SC to mice once 4 hr before inoculation of sporozoites. Four-week-old male CD-1 mice, purchased from Charles River and weighing 16-17 g, are placed 5 per cage and allowed to acclimate for 4 days before being treated and then inoculated with sporozoites. They are fed food and water ad-lib and maintained at 76° F. with 12 hr light and 12 hr darkness. The cages and water bottles are changed biweekly. The mice are weighed on Days 0, 3 and 6 then biweekly when blood films are taken. Plasmodium yoelii (17×) is used to infect mice that will be used to infect the mosquitoes. Mice are given a single dose of test compound 4 hr before being inoculated intraperitoneally with 2.5×10^5 sporozoites of Plasmodium yoelii on Day 0. […]

A short description of data set [2]: Death rates after single intragastric treatment in rats. The data set is classed as in vivo.
Data set [3] is described as follows: Host toxicity in animal models (general statements). As to conditions: any dose, all species of animal models studied. The data set is classed as in vivo.
The next data set relates to P. berghei ANKA. As to the kind of experiment: In vivo antimalarial study against P. berghei in rats. Set-up: species or system Plasmodium berghei.

We go through two compounds from patent publication US7253177B2, “Synthesis and antimalarial activity of pyrrolo[3,2-f]quinazoline-1,3-diamine derivatives” (United States of America as Represented by the Secretary of …, priority 2004, dated 2007).

Each structure is given as a SMILES string. Converted amounts (≈) assume the structure as drawn.

As to `CCOC(=O)Nc1nc(NC(=O)OCC)c2c(ccc3c2ccn3Cc2ccccc2C(F)(F)F)n1` [Compound 2b], the “IC50 D-6” value in data set [1] (P. falciparum D-6 clone) worked out at 7.9727 ng/mL (≈ 15.9 nM). In addition, the Deaths in data set [2] (rats n=4, single intragastric 50 mg/kg in 1% CMC suspension) is given as 0/4; in data set [2] (rats n=4, single intragastric 100 mg/kg in 1% CMC suspension) it was 0/4; in data set [2] (rats n=4, single intragastric 200 mg/kg in 1% CMC suspension) it was 0/4; in data set [2] (rats n=4, single intragastric 400 mg/kg in 1% CMC suspension), 0/4; in data set [2] (rats n=4, single intragastric 800 mg/kg in 1% CMC suspension), 1/4. For the same compound, the “Day of Death: number of deaths” value in data set [2] (rats, 800 mg/kg, first cell after Deaths (day uncertain)) was 1.
As for `CC(=O)N(C(C)=O)c1nc(N(C(C)=O)C(C)=O)c2c(ccc3c2ccn3Cc2ccccc2C(F)(F)F)n1` [Compound 3e, 1,3-Bis(diacetylamino)-7-(2-trifluoromethyl)benzyl-7H-pyrrolo[3,2-f]quinazoline], the concentration for half-maximal inhibition (IC50) in data set [1] (Plasmodium falciparum, read-out: IC50 D-6) is 0.0236 ng/mL (≈ 0.0449 nM). Besides, the “host toxicity in efficacy studies” value in data set [3] is “No host toxicity”. This compound yielded a therapeutic index in data set [2] (rats) above 160. Moreover, in data set [2] (up to 800 mg by a single oral dose), the “drug-related deaths in rats” value is on record as “no drug-related deaths”. The “cure against P. berghei in rats” value in the data set with P. berghei ANKA (5 mg/kg intragastric daily x3 (days 6, 7, 8 post-inoculation)) is 100%; in the data set with P. berghei ANKA (10 mg/kg intragastric daily x3), 100%; with P. berghei ANKA (20 mg/kg intragastric daily x3), 100%.

The IC50 is the concentration that gives 50% inhibition.
